Assay results reported in patent publication US20090221642A1, “MUSCARINIC RECEPTOR AGONISTS, COMPOSITIONS, METHODS OF TREATMENT THEREOF, AND PROCESSES FOR PREPARATION THEREOF-176” (AstraZeneca AB, priority 2008, published 2009).

Molecular target: T1, hM1 (human Muscarinic receptor subtype 1) (Homo sapiens, UniProt P11229)
T1 construct: expressed in transfected cells; host or cells: CHO cells (Chinese hamster ovary cells, ATCC)
T1 sequence (P11229 1-460): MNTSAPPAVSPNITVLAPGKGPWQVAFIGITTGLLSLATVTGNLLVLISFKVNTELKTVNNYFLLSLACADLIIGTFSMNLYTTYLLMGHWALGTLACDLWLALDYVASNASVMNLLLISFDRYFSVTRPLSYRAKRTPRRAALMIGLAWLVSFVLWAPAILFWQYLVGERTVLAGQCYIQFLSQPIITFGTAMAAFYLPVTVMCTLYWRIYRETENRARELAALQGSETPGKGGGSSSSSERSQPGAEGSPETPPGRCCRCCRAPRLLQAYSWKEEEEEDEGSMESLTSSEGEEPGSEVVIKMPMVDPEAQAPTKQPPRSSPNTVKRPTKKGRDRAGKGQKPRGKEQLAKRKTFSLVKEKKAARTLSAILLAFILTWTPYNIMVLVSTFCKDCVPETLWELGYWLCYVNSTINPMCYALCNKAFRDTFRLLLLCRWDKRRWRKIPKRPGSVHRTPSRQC
Experiment: Human M1 calcium mobilization FLIPR assay
Type: cell-based
Settings: hM1 expressed in CHO cells, intracellular Ca2+ release, read-out: hM1 EC50
Procedure: Human M1, rat M1, human M3 and human M5 Calcium Mobilization FLIPR™ Assay
The compound activity in the present invention (EC50 or IC50) is measured using a 384 plate-based imaging assay that monitors drug induced intracellular Ca^2+ release in whole cells. Activation of hM1 (human Muscarinic receptor subtype 1, gene bank access NM_000738), rM1 (rat Muscarinic receptor subtype 1, gene bank access NM_080773), hM3 (human Muscarinic receptor subtype 3, gene bank access NM_000740NM_000740) and hM5 (human Muscarinic receptor subtype 5, gene bank access NM_0121258), receptors expressed in CHO cells (Chinese hamster ovary cells, ATCC) is quantified in a Molecular Devices FLIPR II™ instrument as an increase in fluorescent signal. Inhibition of hM3 and hM5 by compounds is determined by the decrease in fluorescent signal in response to 2 nM acetylcholine activation.
Prior to experiment, the cell culture medium is removed from the plates by inversion. […] Plates are incubated at 37° C. for 60 minutes prior to start the experiment. The incubation is terminated by washing the cells four times in assay buffer, leaving a residual 25 μl buffer per well. Cell plates are then transferred to the FLIPR, ready for compound additions.
The day of experiment, acetylcholine and compounds are diluted in assay buffer in three-fold concentration range (10 points serial dilution) for addition by FLIPR instrument. For all calcium assays, a baseline reading is taken for 10 seconds followed by the addition of 12.5 μl of compounds, resulting in a total well volume of 37.5 μl. Data is collected every second for 60 pictures and then every 6 seconds for 20 pictures prior to the addition of agonist. For hM3 and hM5, before agonist addition, a second baseline reading is taken for 10 seconds followed by the addition of 12.5 μl of agonist or buffer, producing a final volume of 50 μl. After agonist stimulation, the FLIPR continues to collect data every second for 60 pictures and then every 6 seconds for 20 pictures. The fluorescence emission is read using filter 1 (emission 510-570 nm) by the FLIPR on board CCD camera.
Calcium mobilization output data are calculated as the maximal relative fluorescence unit (RFU) minus the minimal value for both compound and agonist reading frame (except for hM1 and rM1 using only the maximal RFU). Data are analyzed using sigmoidal fits of a non-linear curve-fitting program (XLfit version 4.2.2 Excel add-in version 4.2.2 build 18 math 1Q version 2.1.2 build 18). All pEC50 and plC50 values are reported as arithmetic means ±standard error of mean of ‘n’ independent experiments.

SMILES	EC50 [nM]
COC(=O)N1CCC(C)(N2CCC(n3c(=O)[nH]c4ccccc43)CC2)C1 (racemic) [Example 2, methyl 3-methyl-3-(4-(2-oxo-2,3-dihydro-1H-benzo[d]imidazol-1-yl)piperidin-1-yl)pyrrolidine-1-carboxylate]	13
CCOC(=O)N1CCC(C)(N2CCC(n3c(=O)[nH]c4cc(F)ccc43)CC2)C1 (single isomer, unassigned) [Example 6, ethyl 3-(4-(5-fluoro-2-oxo-2,3-dihydro-1H-benzo[d]imidazol-1-yl)piperidin-1-yl)-3-methylpyrrolidine-1-carboxylate]	< 1.4
CCOC(=O)N1CCC(C)(N2CCC(n3c(=O)[nH]c4cc(C)ccc43)CC2)C1 (single isomer, unassigned) [Example 12, ethyl 3-methyl-3-(4-(5-methyl-2-oxo-2,3-dihydro-1H-benzo[d]imidazol-1-yl)piperidin-1-yl)pyrrolidine-1-carboxylate]	10.1
Cc1ccc2c(c1)[nH]c(=O)n2C1CCN(C2(C)CCN(C(=O)OC(C)C)C2)CC1 (single isomer, unassigned) [Example 14, isopropyl 3-methyl-3-(4-(5-methyl-2-oxo-2,3-dihydro-1H-benzo[d]imidazol-1-yl)piperidin-1-yl)pyrrolidine-1-carboxylate]	48.3
CC#CCOC(=O)N1CCC(C)(N2CCC(n3c(=O)[nH]c4cc(C)ccc43)CC2)C1 (single isomer, unassigned) [Example 21, but-2-ynyl 3-methyl-3-(4-(5-methyl-2-oxo-2,3-dihydro-1H-benzo[d]imidazol-1-yl)piperidin-1-yl)pyrrolidine-1-carboxylate]	12.5
CC#CCOC(=O)N1CCC(C)(N2CCC(n3c(=O)[nH]c4cc(F)ccc43)CC2)C1 (single isomer, unassigned) [Example 22, but-2-ynyl 3-(4-(5-fluoro-2-oxo-2,3-dihydro-1H-benzo[d]imidazol-1-yl)piperidin-1-yl)-3-methylpyrrolidine-1-carboxylate]	2.8
COC(=O)N1CCC(C)(N2CCC(n3c(=O)[nH]c4cc(F)ccc43)CC2)C1 (single isomer, unassigned) [Example 23, methyl 3-(4-(5-fluoro-2-oxo-2,3-dihydro-1H-benzo[d]imidazol-1-yl)piperidin-1-yl)-3-methylpyrrolidine-1-carboxylate]	9.4
C#CCOC(=O)N1CCC(C)(N2CCC(n3c(=O)[nH]c4cc(F)ccc43)CC2)C1 (single isomer, unassigned) [Example 25, prop-2-ynyl 3-(4-(5-fluoro-2-oxo-2,3-dihydro-1H-benzo[d]imidazol-1-yl)piperidin-1-yl)-3-methylpyrrolidine-1-carboxylate]	1.8
Cc1ccc2[nH]c(=O)n(C3CCN(C4(C)CCN(C(=O)OCCF)C4)CC3)c2c1 (single isomer, unassigned) [Example 26, 2-fluoroethyl 3-methyl-3-(4-(6-methyl-2-oxo-2,3-dihydro-1H-benzo[d]imidazol-1-yl)piperidin-1-yl)pyrrolidine-1-carboxylate]	7.8
Cc1ccc2c(c1)[nH]c(=O)n2C1CCN(C2(C)CCN(C(=O)OCCF)C2)CC1 (single isomer, unassigned) [Example 27, 2-fluoroethyl 3-methyl-3-(4-(5-methyl-2-oxo-2,3-dihydro-1H-benzo[d]imidazol-1-yl)piperidin-1-yl)pyrrolidine-1-carboxylate]	10.8
CC1(N2CCC(n3c(=O)[nH]c4ccccc43)CC2)CCN(C(=O)OCCF)C1 (single isomer, unassigned) [Example 31, 2-fluoroethyl 3-methyl-3-(4-(2-oxo-2,3-dihydro-1H-benzo[d]imidazol-1-yl)piperidin-1-yl)pyrrolidine-1-carboxylate]	13.1
CC1(N2CCC(n3c(=O)[nH]c4ccccc43)CC2)CCN(C(=O)OCCF)C1 (single isomer, unassigned) [Example 32, 2-fluoroethyl 3-methyl-3-(4-(2-oxo-2,3-dihydro-1H-benzo[d]imidazol-1-yl)piperidin-1-yl)pyrrolidine-1-carboxylate]	52.1
CC#CCOC(=O)N1CCC(C)(N2CCC(n3c(=O)[nH]c4ccccc43)CC2)C1 (single isomer, unassigned) [Example 33, but-2-ynyl 3-methyl-3-(4-(2-oxo-2,3-dihydro-1H-benzo[d]imidazol-1-yl)piperidin-1-yl)pyrrolidine-1-carboxylate]	1.7
CC#CCOC(=O)N1CCC(C)(N2CCC(n3c(=O)[nH]c4ccccc43)CC2)C1 (single isomer, unassigned) [Example 34, but-2-ynyl 3-methyl-3-(4-(2-oxo-2,3-dihydro-1H-benzo[d]imidazol-1-yl)piperidin-1-yl)pyrrolidine-1-carboxylate]	14.7
C#CCOC(=O)N1CCC(C)(N2CCC(n3c(=O)[nH]c4cc(F)ccc43)CC2)C1 (single isomer, unassigned) [Example 36, prop-2-ynyl 3-(4-(5-fluoro-2-oxo-2,3-dihydro-1H-benzo[d]imidazol-1-yl)piperidin-1-yl)-3-methylpyrrolidine-1-carboxylate]	32
Cc1ccc2[nH]c(=O)n(C3CCN(C4(C)CCN(C(=O)OC(C)C)C4)CC3)c2c1 (single isomer, unassigned) [Example 39, isopropyl 3-methyl-3-(4-(6-methyl-2-oxo-2,3-dihydro-1H-benzo[d]imidazol-1-yl)piperidin-1-yl)pyrrolidine-1-carboxylate]	26.7
Cc1ccc2[nH]c(=O)n(C3CCN(C4(C)CCN(C(=O)OC(C)C)C4)CC3)c2c1 (single isomer, unassigned) [Example 40, isopropyl 3-methyl-3-(4-(6-methyl-2-oxo-2,3-dihydro-1H-benzo[d]imidazol-1-yl)piperidin-1-yl)pyrrolidine-1-carboxylate]	36.3
C#CCOC(=O)N1CCC(C)(N2CCC(n3c(=O)[nH]c4cc(C)ccc43)CC2)C1 (single isomer, unassigned) [Example 44, prop-2-ynyl 3-methyl-3-(4-(5-methyl-2-oxo-2,3-dihydro-1H-benzo[d]imidazol-1-yl)piperidin-1-yl)pyrrolidine-1-carboxylate]	< 2.3
COC(=O)N1CCC(C)(N2CCC(n3c(=O)[nH]c4ccc(C)cc43)CC2)C1 (single isomer, unassigned) [Example 47, methyl 3-methyl-3-(4-(6-methyl-2-oxo-2,3-dihydro-1H-benzo[d]imidazol-1-yl)piperidin-1-yl)pyrrolidine-1-carboxylate]	< 3.2
CCOC(=O)N1CCC(C)(N2CCC(N3C(=O)Cc4ccc(C)cc43)CC2)C1 (single isomer, unassigned) [Example 70, ethyl 3-methyl-3-(4-(6-methyl-2-oxoindolin-1-yl)piperidin-1-yl)pyrrolidine-1-carboxylate]	9.8
COC(=O)N1CCC(C)(N2CCC(N3C(=O)Cc4ccc(F)cc43)CC2)C1 (single isomer, unassigned) [Example 76, methyl 3-(4-(6-fluoro-2-oxoindolin-1-yl)piperidin-1-yl)-3-methylpyrrolidine-1-carboxylate]	40.1
CCOC(=O)N1CCC(C)(N2CCC(N3C(=O)Cc4cc(F)ccc43)CC2)C1 (single isomer, unassigned) [Example 80, ethyl 3-(4-(5-fluoro-2-oxoindolin-1-yl)piperidin-1-yl)-3-methylpyrrolidine-1-carboxylate]	69.4
CCOC(=O)N1CCC(C)(N2CCC(N3C(=O)Cc4cc(F)c(C)cc43)CC2)C1 (single isomer, unassigned) [Example 82, ethyl 3-(4-(5-fluoro-6-methyl-2-oxoindolin-1-yl)piperidin-1-yl)-3-methylpyrrolidine-1-carboxylate]	8.7
